Measurements reported in ChEMBL document CHEMBL1201862, “PubChem BioAssay data set” (2004).
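Interpolation was linear, between the two tested concentrations surrounding the appropriate level; five concentrations were tested over 48 hours in 96-well plates. Abbreviation: GI50, concentration required for 50% inhibition of growth.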 Calls of active or inactive are those of the source. Rule as the data show it: active = GI50 up to about 1.1 µM and inactive = higher.

What was measured:
Experiment in all cases: NCI tumour cell line growth inhibition, 48 h
786-0 = tested on: 786-0
ACHN = tested on: ACHN
CAKI-1 = tested on: CAKI-1
CCRF-CEM = tested on: CCRF-CEM
DU-145 = tested on: DU-145
EKVX = tested on: EKVX
HOP-62 = tested on: HOP-62
MCF7 = tested on: MCF7
MDA-MB-435 = tested on: MDA-MB-435
MOLT-4 = tested on: MOLT-4
Malme-3M = tested on: Malme-3M
OVCAR-3 = tested on: OVCAR-3
OVCAR-4 = tested on: OVCAR-4
OVCAR-8 = tested on: OVCAR-8
PC-3 = tested on: PC-3
RXF 393 = tested on: RXF 393
SK-MEL-2 = tested on: SK-MEL-2
SNB-75 = tested on: SNB-75
TK-10 = tested on: TK-10
UACC-62 = tested on: UACC-62

SMILES	GI50 (786-0)	GI50 (ACHN)	GI50 (CAKI-1)	GI50 (CCRF-CEM)	GI50 (DU-145)	GI50 (EKVX)	GI50 (HOP-62)	GI50 (MCF7)	GI50 (MDA-MB-435)	GI50 (MOLT-4)	GI50 (Malme-3M)	GI50 (OVCAR-3)	GI50 (OVCAR-4)	GI50 (OVCAR-8)	GI50 (PC-3)	GI50 (RXF 393)	GI50 (SK-MEL-2)	GI50 (SNB-75)	GI50 (TK-10)	GI50 (UACC-62)
C=CCNC(=S)N/N=C1\C(=O)N(CN2CCOCC2)c2ccc([N+](=O)[O-])cc21	15.6 µM (inactive)	5.3 µM (inactive)	5.19 µM (inactive)	2.7 µM (inactive)	18.7 µM (inactive)	15.4 µM (inactive)	20.6 µM (inactive)	33.3 µM (inactive)	55.1 µM (inactive)	5.98 µM (inactive)	> 100 µM (inactive)	24.3 µM (inactive)	22.7 µM (inactive)	12.7 µM (inactive)	24 µM (inactive)	> 100 µM (inactive)	> 100 µM (inactive)	24.3 µM (inactive)	5.36 µM (inactive)	> 100 µM (inactive)
C\C(=N/N=C1/C(=C\N(C)C)C(=O)NC(=O)N1C)c1ccc(Cl)cc1	> 100 µM (inactive)	> 100 µM (inactive)	76.4 µM (inactive)	15.8 µM (inactive)	> 100 µM (inactive)	> 100 µM (inactive)	> 100 µM (inactive)	> 100 µM (inactive)	37.6 µM (inactive)	> 100 µM (inactive)	> 100 µM (inactive)	> 100 µM (inactive)	> 100 µM (inactive)	> 100 µM (inactive)	72.1 µM (inactive)	> 100 µM (inactive)	57.9 µM (inactive)	32.6 µM (inactive)	57.3 µM (inactive)	> 100 µM (inactive)
COc1cc(C(=O)Nc2c3ccccc3nc3ccccc23)cc(OC)c1OC	> 100 µM (inactive)	> 50.1 µM (inactive)	> 22.1 µM (inactive)	20.5 µM (inactive)	> 100 µM (inactive)	> 59 µM (inactive)	> 36.3 µM (inactive)	> 100 µM (inactive)	> 74.5 µM (inactive)	23.2 µM (inactive)	> 78.3 µM (inactive)	98.6 µM (inactive)	> 100 µM (inactive)	> 59.7 µM (inactive)	> 100 µM (inactive)	14.2 µM (inactive)	> 100 µM (inactive)	0.885 µM (active)	> 100 µM (inactive)	> 34.7 µM (inactive)
COC(=O)C1Cc2ccc(O)c(O)c2CN1 (stereo not given)	17.5 µM (inactive)	> 100 µM (inactive)	> 100 µM (inactive)	35 µM (inactive)	30.7 µM (inactive)	> 100 µM (inactive)	> 100 µM (inactive)	17.1 µM (inactive)	16.7 µM (inactive)	25.1 µM (inactive)	32.1 µM (inactive)	35.5 µM (inactive)	19.3 µM (inactive)	> 10 µM (inactive)	26.1 µM (inactive)	> 100 µM (inactive)	16.7 µM (inactive)	19.5 µM (inactive)	> 100 µM (inactive)	19.7 µM (inactive)
Nc1ccn(CC(O)c2cc3ccccc3[nH]2)c(=O)n1 (stereo not given)	> 100 µM (inactive)	> 100 µM (inactive)	> 100 µM (inactive)	> 100 µM (inactive)	> 100 µM (inactive)	> 100 µM (inactive)	> 100 µM (inactive)	> 100 µM (inactive)	> 100 µM (inactive)	> 100 µM (inactive)	> 100 µM (inactive)	> 100 µM (inactive)	> 100 µM (inactive)	> 100 µM (inactive)	> 100 µM (inactive)	> 100 µM (inactive)	> 100 µM (inactive)	> 100 µM (inactive)	> 100 µM (inactive)	> 100 µM (inactive)
O=c1cc(O)c2c(O)cc(O)cc2o1	> 100 µM (inactive)	> 100 µM (inactive)	> 100 µM (inactive)	> 100 µM (inactive)	> 100 µM (inactive)	> 100 µM (inactive)	> 100 µM (inactive)	> 100 µM (inactive)	> 100 µM (inactive)	> 100 µM (inactive)	> 100 µM (inactive)	> 100 µM (inactive)	> 100 µM (inactive)	> 100 µM (inactive)	> 100 µM (inactive)	> 100 µM (inactive)	> 100 µM (inactive)	> 100 µM (inactive)	> 100 µM (inactive)	> 100 µM (inactive)
CCN1C(=O)/C(=C/Nc2ccccc2)S/C1=N/Nc1nc(-c2ccc(O)c(O)c2)cs1	23 µM (inactive)	15.3 µM (inactive)	31.8 µM (inactive)	4.53 µM (inactive)	5.64 µM (inactive)	16.9 µM (inactive)	6.22 µM (inactive)	4 µM (inactive)	1.71 µM (inactive)	5.53 µM (inactive)	6.19 µM (inactive)	5.69 µM (inactive)	40.8 µM (inactive)	5.07 µM (inactive)	33.9 µM (inactive)	3.39 µM (inactive)	4.31 µM (inactive)	3.05 µM (inactive)	38.5 µM (inactive)	6.4 µM (inactive)
